Values of other authors as cited in publication PMC6245954 (European journal of medicinal chemistry, 2018).

Legend:
[1] = in words; cited from earlier work
[2] = system: two prostate cancer xenografts; conditions: even at the highest dose (0.73 mmol/kg); cited from earlier work
[3] = system: prostate cancer; conditions: cited from earlier work

## COc1cc(-c2oc3ccccc3c(=O)c2O)cc(OC)c1OC [Compd 3, 3′,4′,5′-trimethoxyflavonol]
[1]
  bioavailability: poor bioavailability
[2]
  in vivo antitumor efficacy: very moderate
[3]
  fold greater potency than quercetin (1) and fisetin (2): 5- to 16 fold
